Data reported in patent US20240285571A1, “METHODS OF TREATING BONE INFECTIONS” (MICROBION CORPORATION, priority 2020, published 2024).
≈ marks a conversion by molar mass, not a printed value. Where two headings read alike, the source gives them in different places. Each block holds one molecule with its values, some of them ahead of it.

Assays:
C. albicans = test: Broth microdilution MIC, yeast (Example 5); assay type: cell-based; conditions: Sensitive
Procedure: (§1) Test and Comparator Agents: The test agents were stored at room temperature until assayed. All test agents were suspended and diluted in 100% dimethylsulfoxide (DMSO), and were ultimately tested at a final concentration of 0.06-64 μg/mL. The stock solutions were allowed to stand for at least 1 hr prior to use to auto-sterilize.
(§2) The susceptibility of yeast isolates was determined by broth microdilution in RPMI medium (HyClone Laboratories, Logan, UT; Lot No. AZC184041B) buffered with 0.165 M MOPS (Calbiochem, Billerica, MA; Lot No. 2694962). The pH of the medium was adjusted to 7.0 with 1 N NaOH, sterile filtered using a 0.2 μm PES filter, and stored at 4° C. until used.
(§3) Broth Microdilution MC Testing (Aerobic Bacteria and Yeast): The broth microdilution assay method employed for the susceptibility testing of aerobic bacteria (excluding N. gonorrhoeae which was evaluated by agar dilution) and yeast essentially followed the procedures described by CLSI (3, 4, 7, 8) and employed automated liquid handlers to conduct serial dilutions and liquid transfers. Automated liquid handlers included the Multidrop 384 (Labsystems, Helsinki, Finland) and Biomek 2000 (Beckman Coulter, Fullerton CA). The wells in columns 2-12 in standard 96-well microdilution plates (Costar 3795) were filled with 150 μl of the correct diluent. These would become the ‘mother plates’ from which ‘daughter’ or test plates would be prepared. The drugs (300 μL at 40× the desired top concentration in the test plates) were dispensed into the appropriate well in Column 1 of the mother plates. The Biomek 2000 was used to make serial two-fold dilutions through Column 11 in the “mother plate”. The wells of Column 12 contained no drug and ultimately served as the organism growth control wells.
(§4) The daughter plates were loaded with 185 μL per well of the appropriate test media using the Multidrop 384. The daughter plates were prepared using the Biomek FX which transferred 5 μL of drug solution from each well of a mother plate to the corresponding well of the correct daughter plate in a single step.
(§5) A standardized inoculum of each organism was prepared per CLSI methods (3, 7). Isolated colonies of each test isolate were picked from the primary plate and a suspension was prepared to equal a 0.5 McFarland turbidity standard. Standardized suspensions were then diluted […] (1:100 for yeast, 1:20 for bacteria). After dilution, the inoculum suspensions were then transferred to compartments of sterile reservoirs divided by length (Beckman Coulter), and the Biomek 2000 was used to inoculate all plates. Daughter plates were placed on the Biomek 2000 in reverse orientation so that plates were inoculated from low to high drug concentration.
(§6) The Biomek 2000 delivered 10 μL of standardized inoculum into each well of the appropriate daughter plate for an additional 1:20 dilution. […] The final concentration of DMSO (if used as a solvent) in the test well was 2.5%.
(§7) Plates were stacked 4 high, covered with a lid on the top plate, placed into plastic bags, and incubated at 35° C. for approximately 24-48 hr for all yeast isolates and 16-24 hr for aerobic bacteria. Plates were viewed from the bottom using a plate viewer. […] MIC endpoints for the test agents and control compounds were read per CLSI criteria (3, 7).

C. glabrata = test: Broth microdilution MIC, yeast (Example 5); assay type: cell-based; conditions: FLUR
Procedure: as §1, §2, §3, §4, §5, §6, §7

C. parapsilosis [1] = test: Broth microdilution MIC, yeast (Example 5); assay type: cell-based
Procedure: as §1, §2, §3, §4, §5, §6, §7

C. tropicalis = test: Broth microdilution MIC, yeast (Example 5); assay type: cell-based; conditions: FLUR
Procedure: as §1, §2, §3, §4, §5, §6, §7

C. parapsilosis [2] = conditions: C. parapsilosis MMX 2323 (ATCC 22019), cited from earlier work
B. fragilis = test: Agar dilution MIC, anaerobes (Example 5); assay type: cell-based; conditions: Bacteroides fragilis, ATCC25285; B. fragilis MMX 123 (ATCC 25285); QC; read-out: MIC
C. difficile [3] = test: Agar dilution MIC, anaerobes (Example 5); assay type: cell-based, Clostridium difficile; conditions: Clostridioides difficile, read-out: MIC
C. difficile [4] = conditions: C. difficile MMX 4381 (ATCC 700057); cited from earlier work

MIC (C. albicans; C. albicans MMX 7039, 24 hr): 0.5, 0.5 μg/mL | MIC (C. albicans; C. albicans MMX 7039, 48 hr): 0.5, 0.5 μg/mL | MIC (C. albicans; C. albicans MMX 7055, 24 hr): 0.25 µg/mL (≈ 0.271 µM) | MIC (C. albicans; C. albicans MMX 7055, 48 hr): 0.5 µg/mL (≈ 0.541 µM) | MIC (C. glabrata; C. glabrata MMX 7086, 24 hr): 0.5 µg/mL (≈ 0.541 µM) | MIC (C. glabrata; C. glabrata MMX 7086, 48 hr): 1 µg/mL (≈ 1.08 µM) | MIC (C. glabrata; C. glabrata MMX 7318, 24 hr): 0.5 µg/mL (≈ 0.541 µM) | MIC (C. glabrata; C. glabrata MMX 7318, 48 hr): 1 µg/mL (≈ 1.08 µM) | MIC (C. parapsilosis [1]; C. parapsilosis MMX 2323 (ATCC 22019), QC, 24 hr): 0.5 µg/mL (≈ 0.541 µM) | MIC (C. parapsilosis [1]; C. parapsilosis MMX 2323 (ATCC 22019), QC, 48 hr): 1 µg/mL (≈ 1.08 µM) | MIC (C. parapsilosis [1]; C. parapsilosis MMX 7370, FLUR, 24 hr): 0.5 µg/mL (≈ 0.541 µM) | MIC (C. parapsilosis [1]; C. parapsilosis MMX 7370, FLUR, 48 hr): 1 µg/mL (≈ 1.08 µM) | MIC (C. parapsilosis [1]; C. parapsilosis MMX 7555, FLUR, 24 hr): 0.5, 0.5 μg/mL | MIC (C. parapsilosis [1]; C. parapsilosis MMX 7555, FLUR, 48 hr): 0.5, 0.5 μg/mL | MIC (C. tropicalis; C. tropicalis MMX 7247, 24 hr): 0.5 µg/mL (≈ 0.541 µM) | MIC (C. tropicalis; C. tropicalis MMX 7247, 48 hr): 1 µg/mL (≈ 1.08 µM) | MIC (C. tropicalis; C. tropicalis MMX 7248, 24 hr): 0.5 µg/mL (≈ 0.541 µM) | MIC (C. tropicalis; C. tropicalis MMX 7248, 48 hr): 1 µg/mL (≈ 1.08 µM) | MIC (C. tropicalis; C. tropicalis MMX 7360, 24 hr): 0.5, 0.5 μg/mL | MIC (C. tropicalis; C. tropicalis MMX 7360, 48 hr): 0.5, 0.5 μg/mL
SMILES: C[C@@H]1[C@H](O)[C@@H](C)/C=C/C=C/C=C/C=C/C=C/C=C/C=C/[C@H](O[C@@H]2O[C@H](C)[C@@H](O)[C@H](N)[C@@H]2O)C[C@@H]2O[C@](O)(C[C@@H](O)C[C@@H](O)[C@H](O)CC[C@@H](O)C[C@@H](O)CC(=O)O[C@H]1C)C[C@H](O)[C@H]2C(=O)O [Amphotericin B, reference compound]
CLSI QC range of MIC (C. parapsilosis [2]; 24 hr): 0.25 to 2 µg/mL | CLSI QC range of MIC (C. parapsilosis [2]; 48 hr): 0.5 to 4 µg/mL

MIC (B. fragilis): > 64 µg/mL | MIC (C. difficile [3]; ATCC700057, C. difficile MMX 4381 (ATCC 700057), QC, CCI): 0.25 µg/mL (≈ 0.236 µM) | MIC (C. difficile [3]; C. difficile MMX 8272, ribotype 255, CCI): 0.5 µg/mL (≈ 0.473 µM) | MIC (C. difficile [3]; C. difficile MMX 8279, ribotype 005, CCR): 0.5 µg/mL (≈ 0.473 µM) | MIC (C. difficile [3]; C. difficile MMX 8281, ribotype 010, CCR): 0.5 µg/mL (≈ 0.473 µM) | MIC (C. difficile [3]; NCTC13307, C. difficile MMX 5681 (NCTC 13307), ribotype 012, CCR): 0.5 µg/mL (≈ 0.473 µM) | MIC (C. difficile [3]; NCTC13336, C. difficile MMX 5680 (NCTC 13336), ribotype 027, CCI METR): 4 µg/mL (≈ 3.78 µM)
SMILES: CCc1c(Cl)c(O)c(Cl)c(O)c1C(=O)O[C@H]1[C@H](O)[C@H](OC)[C@H](OC/C2=C\C=C\C[C@H](O)/C(C)=C/[C@H](CC)[C@@H](O[C@@H]3OC(C)(C)[C@@H](OC(=O)C(C)C)[C@H](O)[C@@H]3O)/C(C)=C/C(C)=C/C[C@@H]([C@@H](C)O)OC2=O)O[C@@H]1C [Fidaxomicin]
CLSI QC range of MIC (C. difficile [4]): (0.06-0.25) μg/mL
